Key:
[1] = target: OXA-405 β-lactamase (mature, residues 23-261); assay: crystal structure; X-ray structures of the purified enzymes, uncomplexed and soaked with nacubactam or avibactam; crystals grown in 0.1 M HEPES pH 7.5 or 0.1 M Tris pH 8.5-9.0 with PEG 400 or PEG 550; homodimer seen in the crystal, chloride ion at the dimer interface
OXA-405 [2] = target: T1, OXA-405 (Klebsiella pneumoniae, UniProt Q6XEC0, DEL213-216); conditions: 1 nM enzyme, pH 7.6
Experimental: (§1) All enzyme kinetics experiments were performed in 50 mM HEPES pH 7.6, 50 mM NaPO4 buffer supplemented with 50 mM NaHCO3 and 50 μg mL^−1 bovine serum albumin (BSA) in 96-well half area plates (Greiner, 675801).

OXA-163 [3] = target: T2, OXA-163 (Klebsiella pneumoniae, UniProt Q6XEC0, DEL214-217/S212D); conditions: 1 nM enzyme, pH 7.6
Experimental: as §1

[4] = test system: O=C(Cc1cccs1)N[C@@H]1C(=O)N2C(C(=O)O)=C(/C=C/c3ccc([N+](=O)[O-])cc3[N+](=O)[O-])CS[C@H]12; assay: purified protein, by the assay type; conditions: other: 1 nM enzyme, pH 7.6
OXA-48 [5] = target: T3, OXA-48 (Klebsiella pneumoniae, UniProt Q6XEC0); conditions: cited from earlier work; for Binding affinities and complex residence times against OXA-48: in words
T3 construct: pOPINF-OXA-48^(23-265) (previously cloned as described in Cahill et al); hexahistidine tag with 3C protease site (pOPINF) (N, cleaved yes); made in house; host or cells: E. coli BL21-DE3

OXA-48 [6] = target: T3, OXA-48; assay: IC50 determination, inhibition of nitrocefin hydrolysis by OXA-48; format: biochemical; conditions: for Fold difference in IC50, nacubactam versus avibactam, OXA-48: ratio nacubactam IC50 / avibactam IC50
OXA-163 [7] = target: T2, OXA-163; assay: IC50 determination, inhibition of nitrocefin hydrolysis by OXA-163; format: biochemical; set-up: genes encoding the mature OXA-163^23-261 (GenBank HQ700343); hexahistidine tag with 3C protease site (pOPINF) (N, cleaved yes); made in house; host or cells: E. coli BL21-DE3
OXA-405 [8] = target: T1, OXA-405; assay: IC50 determination, inhibition of nitrocefin hydrolysis by OXA-405; format: biochemical; set-up: genes encoding the mature OXA-163^23-261 (GenBank HQ700343) and OXA-405^23-261 (GenBank KM589641) open reading frames; hexahistidine tag with 3C protease site (pOPINF) (N, cleaved yes); made in house; host or cells: E. coli BL21-DE3
OXA-405 [9] = assay: as above; format: biochemical; conditions: IC50 OXA-48 / IC50 OXA-405
OXA-163 [10] = assay: IC50 determination, inhibition of nitrocefin hydrolysis by OXA-163; format: biochemical; conditions: IC50 OXA-48 / IC50 OXA-163
crystal structure = target: the molecule itself; assay: crystal structure
[11] = ratio nacubactam IC50 / avibactam IC50

OXA-405 β-lactamase (mature, residues 23-261) (enzyme)
stoichiometry N [1]: 2

O=C(Cc1cccs1)N[C@@H]1C(=O)N2C(C(=O)O)=C(/C=C/c3ccc([N+](=O)[O-])cc3[N+](=O)[O-])CS[C@H]12 [nitrocefin]
kcat, nitrocefin hydrolysis by OXA-405 (OXA-405 [2]): 113.9 s⁻¹
Km (OXA-405 [2]; read-out: KM, nitrocefin hydrolysis by OXA-405): 33.9 µM
kcat, nitrocefin hydrolysis by OXA-163 (OXA-163 [3]): 64.5 s⁻¹
Km (OXA-163 [3]; read-out: KM, nitrocefin hydrolysis by OXA-163): 13.4 µM

OXA-48 (Klebsiella pneumoniae)
Km [4]: 114.4 µM
kcat [4]: 515.0 s⁻¹
kcat/Km [4]: 5.2e+06 M⁻¹ s⁻¹

O=C(NNC(=O)[C@@H]1CC[C@@H]2CN1C(=O)N2OS(=O)(=O)O)C1CNC1 [FPI-1602]
Binding affinities and complex residence times against OXA-48 (OXA-48 [5]): lower binding affinities and complex residence times

NCCONC(=O)[C@@H]1CC[C@@H]2CN1C(=O)N2OS(=O)(=O)O [nacubactam]
IC50 (OXA-48 [6]; 1 nM enzyme pre-incubated 10 min with inhibitor, 75 μM nitrocefin, pH 7.6, read-out: IC50 against OXA-48): 19.9 µM
Fold difference in IC50, nacubactam versus avibactam, OXA-48 (OXA-48 [6]): 77 fold
Fold difference in IC50, nacubactam versus avibactam, OXA-48 (OXA-48 [6]; listed as Nacubactam): 76.6 fold
IC50 (OXA-163 [7]): 1.23 µM
Fold difference in IC50, nacubactam versus avibactam, OXA-163 (OXA-163 [7]; [11]): 6.2 fold
Decrease in enzyme : inhibitor residence time (t1/2) compared to avibactam, OXA-48 (OXA-48 [5]): approximately 37 fold
Increase in dissociation rate (koff) compared to avibactam, OXA-48 (OXA-48 [5]): ~36 fold
IC50 (OXA-405 [8]): 10.6 µM
Fold difference in IC50, nacubactam versus avibactam, OXA-405 (OXA-405 [8]; [11]): 10.7 fold
Increase in inhibition potency towards OXA-405 compared to OXA-48 (OXA-405 [9]): 1.9 fold
Increase in inhibition potency towards OXA-163 compared to OXA-48 (OXA-163 [10]): 16.2 fold

O=C(NO[C@@H]1CCNC1)[C@@H]1CC[C@@H]2CN1C(=O)N2OS(=O)(=O)O [FPI-1465]
Binding affinities and complex residence times against OXA-48 (OXA-48 [5]): lower binding affinities and complex residence times

B1: OXA-48 β-lactamase (residues 23-265) (enzyme)
chain: KEWQENKSWNAHFTEHKSQGVVVLWNENKQQGFTNNLKRANQAFLPASTFKIPNSLIALDLGVVKDEHQVFKWDGQTRDIATWNRDHNLITAMKYSVVPVYQEFARQIGEARMSKMLHAFDYGNEDISGNVDSFWLDGGIRISATEQISFLRKLYHNKLHVSERSQRIVKQAMLTEANGDYIIRAKTGYSTRIEPKIGWWVGWVELDDNVWFFAMNMDMPTSDGLGLRQAITKEVLKQEKIIP
notes: also called OXA-48^(23-265); OXA-48 carbapenemase; source: E. coli BL21-DE3, purified (Ni-NTA, 3C protease cleavage, second Ni-NTA, Superdex 75 SEC)
stoichiometry N (crystal structure): 2

B2: OXA-163 β-lactamase (mature, residues 23-261) (enzyme)
chain: KEWQENKSWNAHFTEHKSQGVVVLWNENKQQGFTNNLKRANQAFLPASTFKIPNSLIALDLGVVKDEHQVFKWDGQTRDIATWNRDHNLITAMKYSVVPVYQEFARQIGEARMSKMLHAFDYGNEDISGNVDSFWLDGGIRISATEQISFLRKLYHNKLHVSERSQRIVKQAMLTEANGDYIIRAKTGYDTKIGWWVGWVELDDNVWFFAMNMDMPTSDGLGLRQAITKEVLKQEKIIP
notes: source: E. coli BL21-DE3, purified (Ni-NTA, 3C protease cleavage, second Ni-NTA, Superdex 75 SEC)
stoichiometry N (crystal structure): 2
